Test results reported in publication PMC3474704 (Clinical cancer research : an official journal of the …, 2012).
Read-outs that look alike come from different tables or passages of the source.

How the values were obtained:
MAP4K = assay: Kinase profiling at 1 μM: MAP4K; format: biochemical, human
[1] = Plasma pharmacokinetics in BALB/c mice; format: in vivo, mouse; conditions: for AUC0-∞ / peak plasma concentration: BALB/c mice
[2] = tested on: four human tumor cell lines; assay: cells
RSK = assay: Kinase profiling at 1 μM: RSK; format: biochemical, human
[3] = In vitro metabolism in male CD1 mouse microsomes; format: in vitro ADME; conditions: 10 μM, 30 minutes at 37°C, NADPH and UDPGA
IRAK 1 = IRAK 1 (Homo sapiens, UniProt P51617); assay: Kinase profiling at 1 μM: IRAK 1; format: biochemical
TrKA = TrKA (Homo sapiens, UniProt P04629); assay: Kinase profiling at 1 μM: TrKA; format: biochemical
120-140 human kinases = assay: In vitro kinase profiling at 1 and 10 μM, ATP at Km; format: biochemical
HT29 [4] = assay: cells; conditions: Homo sapiens, HT-29, 96 h
SW620 = assay: cells; conditions: Homo sapiens, SW-620, 96 h
FLT3 = FLT3 (Homo sapiens, UniProt P36888); assay: FLT3 IC50 determination; format: biochemical
CHK2 = CHK2 (Homo sapiens, UniProt O96017); assay: CHK2 IC50 determination; format: biochemical
CHK1 [5] = molecular target: T1, CHK1 (Homo sapiens, UniProt O14757); assay: Cell-based ELISA for G2 checkpoint abrogation
T1 sequence (O14757 1-476): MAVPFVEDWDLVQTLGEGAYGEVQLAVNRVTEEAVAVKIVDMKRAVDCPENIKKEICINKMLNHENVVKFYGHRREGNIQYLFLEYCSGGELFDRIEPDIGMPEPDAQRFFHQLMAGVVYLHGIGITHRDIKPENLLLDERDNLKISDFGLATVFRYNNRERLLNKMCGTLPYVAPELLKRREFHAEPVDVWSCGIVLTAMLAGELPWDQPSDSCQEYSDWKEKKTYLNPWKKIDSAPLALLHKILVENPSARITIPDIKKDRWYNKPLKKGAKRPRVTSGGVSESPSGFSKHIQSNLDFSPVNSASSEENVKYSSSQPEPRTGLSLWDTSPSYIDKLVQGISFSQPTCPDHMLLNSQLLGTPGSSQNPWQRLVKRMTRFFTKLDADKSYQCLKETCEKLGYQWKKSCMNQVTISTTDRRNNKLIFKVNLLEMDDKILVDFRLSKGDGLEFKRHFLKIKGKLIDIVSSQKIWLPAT

CHK1 [6] = molecular target: T1, CHK1; assay: Cell-based ELISA for G2 checkpoint abrogation; remark: listed apart in the source
HT29 xenografts = assay: HT29 xenograft growth delay, combination with gemcitabine; format: in vivo, mouse
[7] = tested on: SW620 colon carcinoma cell line; assay: Cell cycle analysis; format: cell-based, human
CHK1 [8] = molecular target: T1, CHK1; assay: Cell-based ELISA for G2 checkpoint abrogation; remark: listed apart in the source
CHK1 [9] = molecular target: T1, CHK1; assay: Kinase profiling at 1 μM: CHK1; format: biochemical
CHK1 [10] = molecular target: T1, CHK1; conditions: HT29
CDK1 [11] = molecular target: T2, CDK1 (Homo sapiens, UniProt P06493); conditions: versus CHK1
[12] = tested on: pS296, pS317 and pS345 CHK1; assay: Western blotting of CHK1 phosphorylation biomarkers in HT29 cells; format: cell-based, human; conditions: SN38, up to 5μM
CHK1 [13] = molecular target: T1, CHK1; assay: cell-based
[14] = tested on: MYCN-driven neuroblastoma; assay: Single agent activity in TH-MYCN transgenic mouse model of neuroblastoma; format: in vivo
SW620 xenografts = assay: SW620 xenograft, combination with gemcitabine; format: in vivo, mouse; conditions: 75mg/kg p.o. with gemcitabine 100mg/kg i.v.
NUAK1 = NUAK1 (Homo sapiens, UniProt O60285); assay: Kinase profiling at 1 μM: NUAK1; format: biochemical
AMPK = assay: Kinase profiling at 1 μM: AMPK; format: biochemical, human
Aurora B = Aurora B (Homo sapiens, UniProt Q96GD4); assay: Kinase profiling at 1 μM: Aurora B; format: biochemical
HT29 [15] = tested on: HT29
[16] = tested on: S296 CHK1 autophosphorylation; assay: Biomarker changes in HT29 xenografts; format: in vivo, mouse; conditions: 100 or 150mg/kg p.o. with gemcitabine 100mg/kg i.v., P<0.05
CDK1 [17] = molecular target: T2, CDK1; assay: biochemical
[18] = BALB/c, mouse, in vivo, po, 10 mg/kg

Sequence of FLT3 (P36888 27-993): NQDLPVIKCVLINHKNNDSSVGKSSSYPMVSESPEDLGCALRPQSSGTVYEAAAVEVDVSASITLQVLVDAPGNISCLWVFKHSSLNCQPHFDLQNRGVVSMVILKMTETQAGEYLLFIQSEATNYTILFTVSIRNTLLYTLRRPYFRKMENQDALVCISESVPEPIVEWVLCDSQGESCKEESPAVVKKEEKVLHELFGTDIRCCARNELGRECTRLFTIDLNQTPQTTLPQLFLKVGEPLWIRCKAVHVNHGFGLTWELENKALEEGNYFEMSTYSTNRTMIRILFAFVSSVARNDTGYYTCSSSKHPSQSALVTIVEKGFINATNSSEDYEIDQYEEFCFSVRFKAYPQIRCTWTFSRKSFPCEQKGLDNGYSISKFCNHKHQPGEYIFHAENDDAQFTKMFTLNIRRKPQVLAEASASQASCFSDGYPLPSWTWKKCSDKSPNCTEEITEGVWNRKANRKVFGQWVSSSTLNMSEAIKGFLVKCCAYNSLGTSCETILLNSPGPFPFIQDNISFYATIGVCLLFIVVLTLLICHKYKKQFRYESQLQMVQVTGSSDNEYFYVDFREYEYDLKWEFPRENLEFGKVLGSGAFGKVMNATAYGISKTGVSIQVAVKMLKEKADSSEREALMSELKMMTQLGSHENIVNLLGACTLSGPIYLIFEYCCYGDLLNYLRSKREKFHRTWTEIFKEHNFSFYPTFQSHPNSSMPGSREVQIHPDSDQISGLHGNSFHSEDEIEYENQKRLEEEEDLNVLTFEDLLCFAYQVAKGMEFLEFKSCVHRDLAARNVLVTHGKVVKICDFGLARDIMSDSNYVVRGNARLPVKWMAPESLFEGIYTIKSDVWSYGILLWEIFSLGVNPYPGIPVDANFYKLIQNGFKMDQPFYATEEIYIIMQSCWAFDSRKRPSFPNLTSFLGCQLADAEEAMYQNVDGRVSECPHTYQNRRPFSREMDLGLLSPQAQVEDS
T2 sequence (P06493 whole entry, looked up): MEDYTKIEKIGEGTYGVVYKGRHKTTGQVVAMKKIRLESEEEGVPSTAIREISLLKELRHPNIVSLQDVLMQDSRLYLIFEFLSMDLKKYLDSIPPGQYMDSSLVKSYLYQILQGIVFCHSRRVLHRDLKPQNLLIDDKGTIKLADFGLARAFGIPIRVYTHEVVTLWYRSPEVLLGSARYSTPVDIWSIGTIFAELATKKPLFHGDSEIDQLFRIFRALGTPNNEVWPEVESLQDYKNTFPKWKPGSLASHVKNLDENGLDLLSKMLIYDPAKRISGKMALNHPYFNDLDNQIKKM
Sequence of CHK2 (O96017 whole entry): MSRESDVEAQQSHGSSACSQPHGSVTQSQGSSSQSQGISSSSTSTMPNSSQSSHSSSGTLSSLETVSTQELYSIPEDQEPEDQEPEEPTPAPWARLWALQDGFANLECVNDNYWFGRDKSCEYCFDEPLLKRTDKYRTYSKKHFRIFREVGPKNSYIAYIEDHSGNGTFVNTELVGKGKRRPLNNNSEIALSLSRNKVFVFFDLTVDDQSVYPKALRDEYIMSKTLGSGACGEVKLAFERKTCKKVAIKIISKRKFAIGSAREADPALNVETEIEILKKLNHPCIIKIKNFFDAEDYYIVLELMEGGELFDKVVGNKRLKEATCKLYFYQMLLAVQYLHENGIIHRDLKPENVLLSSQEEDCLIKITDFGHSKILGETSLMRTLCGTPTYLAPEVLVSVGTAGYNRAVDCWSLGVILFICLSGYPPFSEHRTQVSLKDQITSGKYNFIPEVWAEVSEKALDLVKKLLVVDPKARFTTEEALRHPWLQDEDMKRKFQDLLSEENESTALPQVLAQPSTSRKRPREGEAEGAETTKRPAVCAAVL
Sequence of Aurora B (Q96GD4 whole entry): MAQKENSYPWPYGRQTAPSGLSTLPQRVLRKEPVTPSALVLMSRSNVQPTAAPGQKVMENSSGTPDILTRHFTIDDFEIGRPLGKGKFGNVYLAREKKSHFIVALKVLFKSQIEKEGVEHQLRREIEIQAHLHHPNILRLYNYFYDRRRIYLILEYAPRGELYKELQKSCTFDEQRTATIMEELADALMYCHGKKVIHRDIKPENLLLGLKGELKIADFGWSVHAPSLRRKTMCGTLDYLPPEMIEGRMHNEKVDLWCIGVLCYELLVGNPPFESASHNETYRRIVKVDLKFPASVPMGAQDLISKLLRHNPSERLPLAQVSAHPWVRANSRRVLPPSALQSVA
Sequence of IRAK 1 (P51617 whole entry): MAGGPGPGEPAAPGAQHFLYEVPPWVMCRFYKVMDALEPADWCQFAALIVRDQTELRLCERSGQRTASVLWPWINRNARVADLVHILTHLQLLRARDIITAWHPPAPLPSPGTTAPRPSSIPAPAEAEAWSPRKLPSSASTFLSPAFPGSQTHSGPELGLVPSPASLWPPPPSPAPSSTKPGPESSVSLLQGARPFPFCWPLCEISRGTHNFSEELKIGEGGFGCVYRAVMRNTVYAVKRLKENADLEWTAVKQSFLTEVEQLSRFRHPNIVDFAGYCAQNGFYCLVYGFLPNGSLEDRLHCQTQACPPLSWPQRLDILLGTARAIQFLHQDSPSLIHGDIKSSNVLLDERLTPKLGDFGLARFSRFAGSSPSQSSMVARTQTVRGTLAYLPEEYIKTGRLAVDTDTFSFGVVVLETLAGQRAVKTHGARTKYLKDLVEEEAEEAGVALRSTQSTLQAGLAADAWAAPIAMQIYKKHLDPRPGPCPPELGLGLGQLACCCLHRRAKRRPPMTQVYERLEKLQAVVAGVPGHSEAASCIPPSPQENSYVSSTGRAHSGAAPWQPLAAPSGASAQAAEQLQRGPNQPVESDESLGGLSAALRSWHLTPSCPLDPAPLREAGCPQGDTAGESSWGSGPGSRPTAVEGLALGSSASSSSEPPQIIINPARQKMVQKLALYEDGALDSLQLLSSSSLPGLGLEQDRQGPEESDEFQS
Sequence of TrKA (P04629 33-796): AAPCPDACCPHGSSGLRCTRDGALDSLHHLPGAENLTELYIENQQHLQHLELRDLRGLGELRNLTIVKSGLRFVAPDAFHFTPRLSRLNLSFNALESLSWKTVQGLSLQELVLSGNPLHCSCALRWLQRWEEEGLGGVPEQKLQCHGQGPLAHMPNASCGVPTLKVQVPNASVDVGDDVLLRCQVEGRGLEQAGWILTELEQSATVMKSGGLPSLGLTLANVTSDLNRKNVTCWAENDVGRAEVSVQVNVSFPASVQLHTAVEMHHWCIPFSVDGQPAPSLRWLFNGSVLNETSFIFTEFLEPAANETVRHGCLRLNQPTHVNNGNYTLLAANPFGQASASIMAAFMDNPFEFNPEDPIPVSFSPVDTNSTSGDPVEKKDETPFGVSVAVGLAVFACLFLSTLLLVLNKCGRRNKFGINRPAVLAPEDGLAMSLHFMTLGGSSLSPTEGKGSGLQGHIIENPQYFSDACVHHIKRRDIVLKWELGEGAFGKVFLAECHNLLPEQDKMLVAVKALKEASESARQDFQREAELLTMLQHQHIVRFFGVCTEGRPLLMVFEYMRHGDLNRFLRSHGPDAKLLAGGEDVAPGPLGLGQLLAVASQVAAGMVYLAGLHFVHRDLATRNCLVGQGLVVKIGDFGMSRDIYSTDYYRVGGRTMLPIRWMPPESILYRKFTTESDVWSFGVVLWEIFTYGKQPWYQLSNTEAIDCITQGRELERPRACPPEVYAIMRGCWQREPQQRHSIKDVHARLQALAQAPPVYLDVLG
Sequence of NUAK1 (O60285 whole entry): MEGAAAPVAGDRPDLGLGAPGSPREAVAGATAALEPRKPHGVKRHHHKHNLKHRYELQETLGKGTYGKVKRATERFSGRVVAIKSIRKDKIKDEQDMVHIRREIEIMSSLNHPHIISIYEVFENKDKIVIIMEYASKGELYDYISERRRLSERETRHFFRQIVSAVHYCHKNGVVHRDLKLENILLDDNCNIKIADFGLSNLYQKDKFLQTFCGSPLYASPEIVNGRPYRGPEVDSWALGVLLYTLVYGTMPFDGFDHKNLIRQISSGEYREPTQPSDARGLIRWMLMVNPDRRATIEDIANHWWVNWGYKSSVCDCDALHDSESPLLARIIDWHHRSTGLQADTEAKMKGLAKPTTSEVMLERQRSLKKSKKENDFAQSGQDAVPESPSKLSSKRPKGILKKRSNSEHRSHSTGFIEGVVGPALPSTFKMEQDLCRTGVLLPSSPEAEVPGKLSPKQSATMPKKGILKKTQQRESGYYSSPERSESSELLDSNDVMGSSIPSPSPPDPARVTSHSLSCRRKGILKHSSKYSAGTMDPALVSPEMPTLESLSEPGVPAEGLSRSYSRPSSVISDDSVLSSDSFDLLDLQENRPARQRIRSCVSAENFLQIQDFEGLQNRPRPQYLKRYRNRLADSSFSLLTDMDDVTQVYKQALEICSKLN

COc1cc(Nc2cnc(C#N)c(O[C@H](C)CN(C)C)n2)ncc1-c1cnn(C)c1 [CCT244747]
inhibition (MAP4K): > 50% | AUC0-∞ ([1]; 10mg/kg i.v.): 3.93 μMh | peak plasma concentration ([1]; 10mg/kg i.v., at 5 min): 3.62 µM | AUC0-∞ ([1]; 10mg/kg oral): 2.43 μMh | peak plasma concentration ([1]; 10mg/kg oral): 0.98 µM | clearance ([1]; BALB/c, mouse, in vivo, 10 mg/kg): 6.2 L/h/kg | half-life ([1]; BALB/c, mouse, in vivo, iv, 10 mg/kg): 40.2 min | bioavailability [1, 18]: 62% | half-life [1, 18]: 55.2 min | GI50 [2]: 0.33 to 3 µM | inhibition (RSK): > 50% | microsomal metabolism [3]: 45% | inhibition at 1 µM (IRAK 1): > 50% | inhibition at 1 µM (TrKA): > 50% | number of kinases with >50% inhibition (120-140 human kinases; 1μM, panel of 140 kinases): 8 | number of kinases inhibited by ≥80% (120-140 human kinases; 10μM, total of 121 kinases): 9 | GI50 (HT29 [4]): 0.62 ± 0.23 µM | GI50 (SW620): 3 ± 1.2 µM | IC50 (FLT3): 0.6 µM | selectivity against FLT3 (FLT3; versus CHK1): 75 fold | IC50 (CHK2): > 10 µM | selectivity against CHK2 (CHK2; versus CHK1): more than 1,000 fold | IC50 (CHK1 [5]): 0.094 ± 0.066 µM | IC50 (CHK1 [6]): 0.029 to 0.17 µM | Potentiation Index (PI) (Calu6; Gem): 5.6±0.96 (n=3) | Potentiation Index (PI) (Calu6; SN38): 1.4±0.24 (n=3) | growth delay (HT29 xenografts; 75mg/kg p.o. added to gemcitabine 100mg/kg i.v.): 11.4 days | antitumor effect alone (HT29 xenografts; 75mg/kg p.o. alone): minimal effect | difference in growth delay, combination versus gemcitabine alone (HT29 xenografts; P<0.001): 9.1 days | body weight loss (HT29 xenografts; combination with gemcitabine): minimal body weight loss | effect alone on the cell cycle ([7]; alone, up to 1μM × 24h): minimal effects | increase in G1 ([7]; with gemcitabine 10nM × 24h): 4.4% | increase in S'-phase ([7]; with gemcitabine 10nM × 24h): 19% | reduction in S-phase ([7]; with gemcitabine 10nM × 24h): 28.8% | IC50 (CHK1 [8]): 0.044 ± 0.01 µM | inhibition of CHK1 in kinase profiling (CHK1 [9]): marked inhibition | therapeutic window (ratio of MIA and GI50) (CHK1 [10]): 21 fold | selectivity against CDK1 (CDK1 [11]): more than 1,000 fold | abolition of S317 and S345 CHK1 phosphorylation [12]: neither phosphorylation was completely abolished | IC50 (CHK1 [13]): 0.17 ± 0.0058 µM | tolerability ([14]; TH-MYCN mice, 100mg/kg p.o. × 7 days): well tolerated with no drug-related morbidity | effect on tumor versus vehicle treated controls (final tumor weight) ([14]; TH-MYCN neuroblastoma, 100mg/kg p.o. × 7 days, P<0.001): significant tumor shrinkage | tumor volume reduction by MRI ([14]; TH-MYCN neuroblastoma, 100mg/kg p.o. × 7 days, one example tumor): 79% | post-treatment tumor volume (MRI) ([14]; TH-MYCN neuroblastoma, 100mg/kg p.o. × 7days, pre-treatment 1960mm^3): 417 mm^3 | antitumor activity combined with gemcitabine (SW620 xenografts): Modest activity | inhibition at 1 µM (NUAK1): > 50% | inhibition (AMPK): > 50% | inhibition at 1 µM (Aurora B): > 50% | Potentiation Index (PI) (HT29 [15]; 5FU): 2.2±0.2 (n=3) | Potentiation Index (PI) (HT29 [15]; 5FdU): 9.6±1.2 (n=3) | Potentiation Index (PI) (HT29 [15]; CDDP): 1.8±0.32 (n=3) | Potentiation Index (PI) (HT29 [15]; Etop): 1.9±0.63 (n=4) | Potentiation Index (PI) (HT29 [15]; Gem): 8.5±1.6 (n=4) | Potentiation Index (PI) (HT29 [15]; IR +1h): 3.0±0.67 (n=4) | Potentiation Index (PI) (HT29 [15]; IR −1h): 3.9±0.32 (n=4) | Potentiation Index (PI) (HT29 [15]; SN38, SRB GI50 / Combination GI50): 1.9±0.14 (n=4) | effect on gemcitabine induced S296 CHK1 autophosphorylation in vivo [16]: significantly decreased | IC50 (CDK1 [17]): > 10 µM
